Results on ten compounds are retold here after ChEMBL document CHEMBL5365457, “Selective HDAC3 Inhibitors with Potent In Vivo Antitumor Efficacy against Triple-Negative Breast Cancer” (J Med Chem, 2023).

Each structure is given as a SMILES string. Bounds are passed on as bounds.

One series relates to MCF7. Nature of the series: Cytotoxicity against human MCF7 cells assessed as inhibition of cell growth incubated for 72 hrs by MTT assay. The format is functional, cell-based. Conditions: MCF7, 72 h. In general terms: Formazan colour is commonly taken as a measure of viable cells.
For a further series, the system named is 4T1. Put plainly: Cytotoxicity against mouse 4T1 cells assessed as inhibition of cell growth incubated for 72 hrs by MTT assay. In kind it is functional, cell-based. Conditions: 4T1, 72 h.
The subject of the next series is MDA-MB-231. Put plainly: Cytotoxicity against human MDA-MB-231 cells assessed as inhibition of cell growth incubated for 72 hrs by MTT assay. In kind it is functional, cell-based. Conditions: MDA-MB-231, 72 h.
A further series deals with MDA-MB-453. Put plainly: Cytotoxicity against human MDA-MB-453 cells assessed as inhibition of cell growth incubated for 72 hrs by MTT assay. The format is functional, cell-based. Conditions: MDA-MB-453, 72 h.
Series [1] can be described thus: Cytotoxicity against human MCF-10A cells assessed as inhibition of cell growth incubated for 72 hrs by MTT assay. In kind it is toxicity, cell-based.
Series [2] can be described thus: Cytotoxicity against human HEK293 cells assessed as inhibition of cell growth incubated for 72 hrs by MTT assay. In kind it is toxicity, cell-based.
A short description of series [3]: Cytotoxicity against human HCEC cells assessed as inhibition of cell growth incubated for 72 hrs by MTT assay. The format is toxicity, cell-based. Conditions: human, HCEC cells.
Series [4] is described as follows: Selectivity ratio of IC50 for cytotoxicity against human MCF-10A cells assessed as inhibition of cell growth to IC50 for cytotoxicity against human MCF7 cells assessed as inhibition of cell growth. Conditions: MCF-10A cells versus MCF7 cells, read-out: Ratio IC50. In kind it is toxicity, cell-based.
Series [5] can be described thus: Selectivity ratio of IC50 for cytotoxicity against human MCF-10A cells assessed as inhibition of cell growth to IC50 for cytotoxicity against […] cells assessed as inhibition of cell growth. In kind it is toxicity, cell-based. Conditions: MCF-10A cells versus 4T1 cells, read-out: Ratio IC50.
Series [6] can be described thus: Selectivity ratio of IC50 for cytotoxicity against human MCF-10A cells assessed as inhibition of cell growth to IC50 for cytotoxicity against human MDA-MB-231 cells assessed as inhibition of cell growth. In kind it is toxicity, cell-based. Conditions: MCF-10A cells versus MDA-MB-231 cells, read-out: Ratio IC50.
A short description of series [7]: Selectivity ratio of IC50 for cytotoxicity against human MCF-10A cells assessed as inhibition of cell growth to IC50 for cytotoxicity against human MDA-MB-453 cells assessed as inhibition of cell growth. The format is toxicity, cell-based. Conditions: MCF-10A cells versus MDA-MB-453 cells, read-out: Ratio IC50.
Series [8] can be described thus: Selectivity ratio of IC50 for cytotoxicity against human HEK293 cells assessed as inhibition of cell growth to IC50 for cytotoxicity against human MCF7 cells assessed as inhibition of cell growth. The format is toxicity, cell-based. Conditions: HEK293 cells versus MCF7 cells, read-out: Ratio IC50.
Series [9] can be described thus: Selectivity ratio of IC50 for cytotoxicity against human HEK293 cells assessed as inhibition of cell growth to IC50 for cytotoxicity against mouse 4T1 cells assessed as inhibition of cell growth. In kind it is toxicity, cell-based. Conditions: HEK293 cells versus 4T1 cells, read-out: Ratio IC50.
Series [10] in a line: Selectivity ratio of IC50 for cytotoxicity against human HEK293 cells assessed as inhibition of cell growth to IC50 for cytotoxicity against human MDA-MB-231 cells assessed as inhibition of cell growth. Conditions: HEK293 cells versus MDA-MB-231 cells, read-out: Ratio IC50. The format is toxicity, cell-based.
A short description of series [11]: Selectivity ratio of IC50 for cytotoxicity against human HEK293 cells assessed as inhibition of cell growth to IC50 for cytotoxicity against human MDA-MB-453 cells assessed as inhibition of cell growth. In kind it is toxicity, cell-based. Conditions: HEK293 cells versus MDA-MB-453 cells, read-out: Ratio IC50.
Series [12] can be described thus: Selectivity ratio of IC50 for cytotoxicity against human HCEC cells assessed as inhibition of cell growth to IC50 for cytotoxicity against human MCF7 cells assessed as inhibition of cell growth. The format is toxicity, cell-based. Conditions: HCEC cells versus MCF7 cells, read-out: Ratio IC50.
Series [13] can be described thus: Selectivity ratio of IC50 for cytotoxicity against human HCEC cells assessed as inhibition of cell growth to IC50 for cytotoxicity against mouse 4T1 cells assessed as inhibition of cell growth. In kind it is toxicity, cell-based. Conditions: HCEC cells versus 4T1 cells, read-out: Ratio IC50.
The nature of series [14]: Selectivity ratio of IC50 for cytotoxicity against human HCEC cells assessed as inhibition of cell growth to IC50 for cytotoxicity against human MDA-MB-231 cells assessed as inhibition of cell growth. Conditions: HCEC cells versus MDA-MB-231 cells, read-out: Ratio IC50. The format is toxicity, cell-based.
Series [15] in a line: Selectivity ratio of IC50 for cytotoxicity against human HCEC cells assessed as inhibition of cell growth to IC50 for cytotoxicity against human MDA-MB-453 cells assessed as inhibition of cell growth. In kind it is toxicity, cell-based. Conditions: HCEC cells versus MDA-MB-453 cells, read-out: Ratio IC50.

Broadly, the IC50 is the concentration that inhibits the measured activity by half. `CCCCNNC(=O)c1cnc(NC(C)=O)cn1`: the IC50 in the series with MCF7 was 1.65 µM; in the series on 4T1, 2.74 µM; with MDA-MB-231 it was 3.05 µM; with MDA-MB-453 it was 7.94 µM. Also, the IC50 at 72 h amounted to 106 µM in [1], 229 µM in [2] and 187 µM in [3].

As to `CCCCNNC(=O)c1cnc(NC(=O)c2ccc3[nH]ccc3c2)cn1`, the IC50 with MCF7 is 2.44 µM; in the series with 4T1 it was 1.43 µM; with MDA-MB-231, 1.69 µM; in the series with MDA-MB-453, 4.05 µM. Also, the IC50 at 72 h in series [1] stood at 105 µM; in series [2], 107 µM; in series [3], 130 µM.

`CCCCNNC(=O)c1cnc(Nc2ccccc2)cn1`: the IC50 is 1.14 µM in the series with MCF7, 2.17 µM in the series on 4T1, 1.91 µM in the series with MDA-MB-231 and 5.18 µM in the series with MDA-MB-453. Also, the IC50 at 72 h stood at 138 µM in series [1], 207 µM in series [2] and 180 µM in series [3]. The selectivity ratio in [4], in [5], in series [6], in [7], in [8] and in series [9] was > 40 each time. In addition, the selectivity ratio in series [10], in series [11], in series [12], in [13], in series [14] and in series [15] was > 40 throughout.

Turning to `CCCCNNC(=O)c1cnc(N2CCCCC2)cn1`, the IC50 in the series with MCF7 is 1.87 µM; with 4T1, 3.86 µM; with MDA-MB-231, 2.93 µM; in the series with MDA-MB-453, 6.79 µM. The IC50 at 72 h in series [1] was 104 µM; in [2], 101 µM; in series [3], 119 µM.

`CCCNNC(=O)c1cnc(N)cn1`: the half-inhibitory concentration (IC50) with MCF7 was 0.99 µM; in the series with 4T1 it was 1.08 µM; in the series with MDA-MB-231 it was 0.88 µM; with MDA-MB-453, 2.43 µM. The IC50 at 72 h in series [1] came to 139 µM; in series [2] it was 141 µM; in [3], 220 µM. In addition, the selectivity ratio in series [4], in series [5], in series [6], in series [7], in series [8] and in series [9] was > 40 each time. Further, the selectivity ratio in series [10], in series [11], in [12], in [13], in [14] and in [15] was > 40 each time.

For the compound `CCCNNC(=O)c1cnc(N2CCCCC2)cn1`, the IC50 turned out to be 2.44 µM with MCF7, 0.89 µM in the series with 4T1, 132 µM in the series on MDA-MB-231 and 2.87 µM with MDA-MB-453. Moreover, the IC50 at 72 h was determined as 110 µM in [1], 118 µM in [2] and 163 µM in series [3]. In addition, the selectivity ratio in series [4], in series [5], in series [6], in series [7], in series [8] and in [9] was > 40 each time. Further, the selectivity ratio in [10], in series [11], in series [12], in series [13], in series [14] and in series [15] was > 40 throughout.

Take `CCCNNC(=O)c1cnc(Nc2cccc3ccccc23)cn1`: the IC50 is 1.51 µM with MCF7, 0.94 µM with 4T1, 1.74 µM in the series on MDA-MB-231 and 2.89 µM in the series with MDA-MB-453. Further, the IC50 at 72 h in [1] came to 112 µM; in series [2] it was 116 µM; in [3], 126 µM. Besides, the selectivity ratio in series [4], in series [5], in series [6], in series [7], in [8] and in series [9] was > 40 each time. The selectivity ratio in series [10], in series [11], in [12], in [13], in series [14] and in series [15] was > 40 each time.

In the case of `CCCNNC(=O)c1cnccn1`, the IC50 with MCF7 turned out to be 1.39 µM; in the series with 4T1, 1.14 µM; in the series on MDA-MB-231, 1.07 µM; in the series with MDA-MB-453, 2.49 µM. For the same compound, the IC50 at 72 h in series [1] was 117 µM; in [2] it was 134 µM; in series [3], 128 µM. Besides, the selectivity ratio in [4], in [5], in [6], in [7], in series [8] and in [9] was > 40 throughout. Also, the selectivity ratio in series [10], in [11], in series [12], in series [13], in series [14] and in [15] was > 40 throughout.

Regarding `CCCCNNC(=O)c1cnc(Nc2cccc3ccccc23)cn1`, the IC50 in the series with MCF7 is 4.16 µM; with 4T1 it was 0.98 µM; in the series on MDA-MB-231 it was 2.02 µM; in the series with MDA-MB-453 it was 4.67 µM. Further, the values for the IC50 at 72 h in series [1], in series [2] and in series [3] were 114 µM, 189 µM and 151 µM, respectively. In addition, the selectivity ratio in [4], in [5], in [6], in series [7], in series [8] and in [9] was > 40 throughout. The selectivity ratio in series [10], in series [11], in [12], in series [13], in series [14] and in series [15] was > 40 throughout.

As for `CCCCNNC(=O)c1cnccn1`, the IC50 came out at 2.44 µM in the series with MCF7, 0.88 µM in the series on 4T1, 1.17 µM in the series with MDA-MB-231 and 2.52 µM in the series with MDA-MB-453. In addition, the figures for the IC50 at 72 h in [1], in series [2] and in series [3] were 103 µM, 101 µM and 175 µM, respectively. For the same compound, the selectivity ratio in series [4], in series [5], in [6], in series [7], in series [8] and in series [9] was > 40 throughout. In addition, the selectivity ratio in series [10], in series [11], in series [12], in [13], in series [14] and in [15] was > 40 in each case.
